Measured values reported in ChEMBL document CHEMBL1149714 (2007).
Values after ≈ are worked out from the molar mass of the structure shown.

Key:
Type in all cases: functional
Escherichia coli [1] = assay: Antibacterial activity against Escherichia coli NIHJJC2 after 20 hrs by agar dilution method
Pseudomonas aeruginosa [2] = assay: Antibacterial activity against AmpC hyperproducing Pseudomonas aeruginosa SR24-12 after 20 hrs by agar dilution method
Enterobacter cloacae [3] = assay: Antibacterial activity against AmpC producing Enterobacter cloacae SR-4321 after 20 hrs by agar dilution method
Enterobacter cloacae [4] = assay: Antibacterial activity against Enterobacter cloacae ATCC 13047 after 20 hrs by agar dilution method; conditions: ATCC 13047, 20 h
Escherichia coli [5] = assay: Antibacterial activity against Toho 2 (ESBL) producing Escherichia coli SR-21003 after 20 hrs by agar dilution method
Haemophilus influenzae [6] = assay: Antibacterial activity against beta-lactamase negative ampicillin resistant Haemophilus influenzae SR-11435 after 20 hrs by agar dilution method
Pseudomonas aeruginosa [7] = assay: Antibacterial activity against Pseudomonas aeruginosa SR24 after 20 hrs by agar dilution method
Haemophilus influenzae [8] = assay: Antibacterial activity against Haemophilus influenzae ATCC 49766 after 20 hrs by agar dilution method; conditions: ATCC 49766, 20 h
Streptococcus pneumoniae = assay: Antibacterial activity against penicillin resistant Streptococcus pneumoniae SR-16675 after 20 hrs by agar dilution method
Pseudomonas aeruginosa [9] = assay: Antibacterial activity against Pseudomonas aeruginosa SR-5393 after 20 hrs by agar dilution method
Pseudomonas aeruginosa [10] = assay: Antibacterial activity against Imipenem resistant Pseudomonas aeruginosa SR-6554 after 20 hrs by agar dilution method
Staphylococcus aureus = assay: Antibacterial activity against […] Staphylococcus aureus SMITH after 20 hrs by agar dilution method
Moraxella catarrhalis = assay: Antibacterial activity against Moraxella catarrhalis ATCC 43617 after 20 hrs by agar dilution method; conditions: ATCC 43617, 20 h

SMILES	MIC (Escherichia coli [1]) [µg/mL]	MIC (Pseudomonas aeruginosa [2]) [µg/mL]	MIC (Enterobacter cloacae [3]) [µg/mL]	MIC (Enterobacter cloacae [4]) [µg/mL]	MIC (Escherichia coli [5]) [µg/mL]	MIC (Haemophilus influenzae [6]) [µg/mL]	MIC (Pseudomonas aeruginosa [7]) [µg/mL]	MIC (Haemophilus influenzae [8]) [µg/mL]	MIC (Streptococcus pneumoniae) [µg/mL]	MIC (Pseudomonas aeruginosa [9]) [µg/mL]	MIC (Pseudomonas aeruginosa [10]) [µg/mL]	MIC (Staphylococcus aureus) [µg/mL]	MIC (Moraxella catarrhalis) [µg/mL]
CNCCCn1ccc2c1ccc[n+]2CC1=C(C(=O)[O-])N2C(=O)[C@@H](NC(=O)/C(=N\OC3(C(=O)O)CC3)c3nc(N)sc3Cl)[C@H]2SC1	0.5 (≈ 0.726 µM)	4 (≈ 5.8 µM)	2 (≈ 2.9 µM)	0.5 (≈ 0.726 µM)	4 (≈ 5.8 µM)	0.032 (≈ 0.0464 µM)	1 (≈ 1.45 µM)	0.016 (≈ 0.0232 µM)	4 (≈ 5.8 µM)	4 (≈ 5.8 µM)	16 (≈ 23.2 µM)	1 (≈ 1.45 µM)	0.008 (≈ 0.0116 µM)
CNCCCn1ccc2c1ccc[n+]2CC1=C(C(=O)[O-])N2C(=O)[C@@H](NC(=O)/C(=N\O[C@@H](C)C(=O)O)c3csc(N)n3)[C@H]2SC1	0.063 (≈ 0.098 µM)	32 (≈ 49.8 µM)	16 (≈ 24.9 µM)	0.25 (≈ 0.389 µM)	1 (≈ 1.56 µM)	0.063 (≈ 0.098 µM)	0.5 (≈ 0.778 µM)	0.032 (≈ 0.0498 µM)	8 (≈ 12.4 µM)	2 (≈ 3.11 µM)	16 (≈ 24.9 µM)	2 (≈ 3.11 µM)	0.125 (≈ 0.194 µM)
CNCCCn1ccc2c1ccc[n+]2CC1=C(C(=O)[O-])N2C(=O)[C@@H](NC(=O)/C(=N\O[C@@H](C)C(=O)O)c3nc(N)sc3F)[C@H]2SC1	0.031 (≈ 0.0469 µM)	> 128	> 128	1 (≈ 1.51 µM)	16 (≈ 24.2 µM)	0.25 (≈ 0.378 µM)	1 (≈ 1.51 µM)	0.063 (≈ 0.0954 µM)	16 (≈ 24.2 µM)	8 (≈ 12.1 µM)	128 (≈ 194 µM)	2 (≈ 3.03 µM)	0.5 (≈ 0.757 µM)
CNCCCn1ccc2c1ccc[n+]2CC1=C(C(=O)[O-])N2C(=O)[C@@H](NC(=O)/C(=N\O[C@@H](C)C(=O)O)c3nc(N)sc3Br)[C@H]2SC1	0.5 (≈ 0.693 µM)	4 (≈ 5.54 µM)	4 (≈ 5.54 µM)	1 (≈ 1.39 µM)	4 (≈ 5.54 µM)	0.125 (≈ 0.173 µM)	1 (≈ 1.39 µM)	0.063 (≈ 0.0873 µM)	4 (≈ 5.54 µM)	4 (≈ 5.54 µM)	8 (≈ 11.1 µM)	1 (≈ 1.39 µM)	0.016 (≈ 0.0222 µM)
CNCCCn1ccc2c1ccc[n+]2CC1=C(C(=O)[O-])N2C(=O)[C@@H](NC(=O)/C(=N\OCC(=O)O)c3nc(N)sc3Cl)[C@H]2SC1	0.25 (≈ 0.377 µM)	8 (≈ 12.1 µM)	8 (≈ 12.1 µM)	0.25 (≈ 0.377 µM)	2 (≈ 3.02 µM)	0.125 (≈ 0.188 µM)	0.5 (≈ 0.754 µM)	0.032 (≈ 0.0483 µM)	2 (≈ 3.02 µM)	2 (≈ 3.02 µM)	8 (≈ 12.1 µM)	2 (≈ 3.02 µM)	0.016 (≈ 0.0241 µM)
CNCCCn1ccc2c1ccc[n+]2CC1=C(C(=O)[O-])N2C(=O)[C@@H](NC(=O)/C(=N\O[C@H](C(=O)O)C(C)C)c3nc(N)sc3Cl)[C@H]2SC1	2 (≈ 2.84 µM)	8 (≈ 11.3 µM)	8 (≈ 11.3 µM)	4 (≈ 5.67 µM)	8 (≈ 11.3 µM)	0.063 (≈ 0.0893 µM)	2 (≈ 2.84 µM)	0.032 (≈ 0.0454 µM)	4 (≈ 5.67 µM)	8 (≈ 11.3 µM)	16 (≈ 22.7 µM)	1 (≈ 1.42 µM)	0.016 (≈ 0.0227 µM)
CNCCCn1ccc2c1ccc[n+]2CC1=C(C(=O)[O-])N2C(=O)[C@@H](NC(=O)/C(=N\OC3(C(=O)O)CCC3)c3nc(N)sc3Cl)[C@H]2SC1	1 (≈ 1.42 µM)	4 (≈ 5.69 µM)	4 (≈ 5.69 µM)	2 (≈ 2.84 µM)	4 (≈ 5.69 µM)	0.063 (≈ 0.0896 µM)	1 (≈ 1.42 µM)	0.032 (≈ 0.0455 µM)	4 (≈ 5.69 µM)	4 (≈ 5.69 µM)	16 (≈ 22.8 µM)	1 (≈ 1.42 µM)	0.016 (≈ 0.0228 µM)
CNCCCn1ccc2c1ccc[n+]2CC1=C(C(=O)[O-])N2C(=O)[C@@H](NC(=O)/C(=N\O[C@H](C)C(=O)O)c3nc(N)sc3Cl)[C@H]2SC1	0.5 (≈ 0.738 µM)	4 (≈ 5.91 µM)	4 (≈ 5.91 µM)	1 (≈ 1.48 µM)	4 (≈ 5.91 µM)	0.25 (≈ 0.369 µM)	1 (≈ 1.48 µM)	0.063 (≈ 0.093 µM)	4 (≈ 5.91 µM)	4 (≈ 5.91 µM)	16 (≈ 23.6 µM)	2 (≈ 2.95 µM)	0.032 (≈ 0.0473 µM)
C=C(O/N=C(\C(=O)N[C@@H]1C(=O)N2C(C(=O)[O-])=C(C[n+]3cccc4c3ccn4CCCNC)CS[C@H]12)c1nc(N)sc1Cl)C(=O)O	0.25 (≈ 0.37 µM)	8 (≈ 11.8 µM)	1 (≈ 1.48 µM)	0.25 (≈ 0.37 µM)	1 (≈ 1.48 µM)	0.063 (≈ 0.0933 µM)	2 (≈ 2.96 µM)	0.032 (≈ 0.0474 µM)	2 (≈ 2.96 µM)	8 (≈ 11.8 µM)	32 (≈ 47.4 µM)	0.5 (≈ 0.741 µM)	0.016 (≈ 0.0237 µM)
CNCCCn1ccc2c1ccc[n+]2CC1=C(C(=O)[O-])N2C(=O)[C@@H](NC(=O)/C(=N\O[C@@H](C)C(=O)O)c3nc(N)sc3C)[C@H]2SC1	2 (≈ 3.05 µM)	8 (≈ 12.2 µM)	16 (≈ 24.4 µM)	4 (≈ 6.09 µM)	32 (≈ 48.7 µM)	2 (≈ 3.05 µM)	1 (≈ 1.52 µM)	0.125 (≈ 0.19 µM)	8 (≈ 12.2 µM)	4 (≈ 6.09 µM)	64 (≈ 97.5 µM)	4 (≈ 6.09 µM)	0.5 (≈ 0.761 µM)
